Substitutions are numbered along the chain they refer to. Where “and” joins values, the source holds several entries; their conditions need not be identical. Equal values may be shown once. Read-outs that look alike come from different tables or passages of the source.
Assays:
Format in all cases: biochemical
[1] = biological target: T1, OPJ-MγS (Mus musculus, UniProt O35486, F10S); assay: End-point heat-mediated turbidity assay, OPJ-MγS; settings: read-out: Percent Inhibition of heat mediated aggregation, OPJ-MGS
T1 construct: made in house; host or cells: E. coli BL21(DE3) pLysS, pET17b vector
T1 sequence (O35486 1-178 F10S): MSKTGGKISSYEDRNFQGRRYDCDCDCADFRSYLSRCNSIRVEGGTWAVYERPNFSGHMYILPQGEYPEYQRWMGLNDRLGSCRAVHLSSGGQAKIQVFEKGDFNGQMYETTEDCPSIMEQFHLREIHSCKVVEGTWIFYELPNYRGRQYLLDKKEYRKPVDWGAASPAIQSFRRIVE
Procedure: Absorbance was measured at 600 nm with a SpectraMax iD5 (Molecular Devices).
Aggregation kinetics assays at 600 nm in the presence of varying concentrations (0, 100, 200, 300, 400, and 500 μM) of our selected drugs were also performed on mutants of HγD (W43R, W42Q, R14C, and R58H) and MγS (F9S) at a concentration of 1 mg/ml in 50 mM K3PO4 buffer (pH 7.2) in a total volume of 100 μl. WT-HγD and WT-MγS crystallin served as controls for their respective mutant versions. […] Absorbance was monitored every 10 min. […] All the experiments were run in duplicates or triplicates.

[2] = biological target: T2, HγS (Homo sapiens, UniProt P22914); assay: Thermal aggregation (72 °C, 20 min) turbidity assay, HγS; settings: 20 min, read-out: % Suppression; for inhibition: HγS, 75 μM protein, 72 °C 20 min
T2 sequence (P22914 1-178): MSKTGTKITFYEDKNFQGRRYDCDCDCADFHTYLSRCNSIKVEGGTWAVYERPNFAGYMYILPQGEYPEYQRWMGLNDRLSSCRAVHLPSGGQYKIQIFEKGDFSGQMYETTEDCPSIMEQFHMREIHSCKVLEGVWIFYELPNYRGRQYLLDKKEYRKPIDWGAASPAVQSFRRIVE
From the text: (§1) For a review, see the study by Roskamp et al. ([38]). […] For the mechanistic studies below these two compounds together with either drug M, chosen mostly as negative control, or the entire set of six compounds were used for comparison purpose, whereby the words “drug” or “compound” are used interchangeably in the studies later.

[3] = biological target: T3, HγS_N14/76/143D (Homo sapiens, UniProt P22914, N144D/N15D/N77D); assay: Thermal aggregation (72 °C, 20 min) turbidity assay, HγS triple mutant; settings: read-out: % Suppression; for inhibition: HγS_N14/76/143D, 75 μM protein, 72 °C 20 min
T3 sequence (P22914 1-178 N15D/N77D/N144D): T2 sequence (P22914 1-178) with N15D, N77D, N144D
From the text: as §1

[4] = system: γ-crystallins (bovine, HγD and HγS crystallins); assay: Mean aggregation suppression across all γ-crystallins tested; parameters: concentration or dose not given beside the values; settings: mean of all experiments in Table 2 (n=9)
From the text: as §1
Table S 4: List of primers used for making WT -HγD mutants

[5] = biological target: T4, WT-MγS (Mus musculus, UniProt O35486); assay: End-point heat-mediated turbidity assay, WT-MγS; settings: for inhibition at 500 µM: read-out: Percent Inhibition of heat mediated aggregation, WT-MGS; for Effect on MγS absorbance: 400 μM drug, 72 °C, protein above 0.5 mg/ml
T4 construct: made in house; host or cells: E. coli BL21(DE3) pLysS, pET17b vector
T4 sequence (O35486 1-178): T1 sequence (O35486 1-178 F10S) with S10F
Procedure: For end-point assays, HγD and MγS (1 mg/ml, 100 μl) in 50 mM K3PO4 buffer (pH 7.2) in set of triplicates in transparent flat bottom 96-well plates were heated at 72 °C for 20 min in the presence and absence of selected drugs at varying concentrations. Absorbance was measured at 600 nm with a SpectraMax iD5 (Molecular Devices). […]
Final DMSO concentration was 5% including in control samples. Microtiter plates were first incubated for 10 min at 72 °C and reincubated for 10 more min. Absorbance was measured at both 10 and 20 min total incubation time.

[6] = biological target: T5, R14C mutant of HγD (Homo sapiens, UniProt P07320, R15C); assay: End-point turbidity assay (72 °C, 20 min) of R14C mutant; settings: 500 μM drug, 5 mM DTT, read-out: Inhibition of aggregation (%) R14C
T5 construct: made in house; host or cells: E. coli BL21(DE3) pLysS
T5 sequence (P07320 1-174 R15C): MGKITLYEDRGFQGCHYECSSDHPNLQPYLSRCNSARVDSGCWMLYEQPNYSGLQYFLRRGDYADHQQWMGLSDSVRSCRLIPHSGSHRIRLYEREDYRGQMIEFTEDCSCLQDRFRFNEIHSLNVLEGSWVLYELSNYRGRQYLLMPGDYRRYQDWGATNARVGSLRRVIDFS
Procedure: Aggregation kinetics assays at 600 nm in the presence of varying concentrations (0, 100, 200, 300, 400, and 500 μM) of our selected drugs were also performed on mutants of HγD (W43R, W42Q, R14C, and R58H) and MγS (F9S) at a concentration of 1 mg/ml in 50 mM K3PO4 buffer (pH 7.2) in a total volume of 100 μl. WT-HγD and WT-MγS crystallin served as controls for their respective mutant versions. For W43R mutant, aggregation assay was done at 42 °C for a total of 200 min. Absorbance was monitored every 10 min. For R14C and R58H mutants, end-point turbidity assay was done at 72 °C for 20 min. […] All the experiments were run in duplicates or triplicates.

[7] = 500 μM drug, end point of turbidity assay 72 °C 20 min

| Compound | inhibition at 500 µM [1] | inhibition at 125 µM [2] | inhibition at 125 µM [3] | Mean % suppression / inhibition of γ-crystallin aggregation against thermal denaturation [4] | inhibition at 500 µM [5] | Effect on MγS absorbance [5] | inhibition at 500 µM [6] | inhibition at 500 µM [1, 7] | inhibition [2] | inhibition [3] | inhibition at 500 µM [5, 7] |
| --- | --- | --- | --- | --- | --- | --- | --- | --- | --- | --- | --- |
| Oc1c(Cl)cc(Cl)c(Cl)c1Cc1c(O)c(Cl)cc(Cl)c1Cl [drug X, Hexachlorophene] | 60.9 ± 0.8% | 68% | 71% | 56% and 55.8% | 39.7 ± 3.42% | – | – | – | – | – | – |
| Cc1cc(C(C#N)c2ccc(Cl)cc2)c(Cl)cc1NC(=O)c1cc(I)cc(I)c1O (centres unmarked) [drug C, Closantel] | 82 ± 0.49% | 71% | 76% | 69% and 68.6% | 80.5 ± 1.87% | blocked absorbance | 68% | – | – | – | – |
| O=C(O)CCCCCCCCCCCC[C@@H]1C=CCC1 [drug M, Chaulmoogric acid] | – | – | – | 42% and 42.2% | – | – | 18% | 33.6 ± 2.36% | 39% | 46% | 46.3 ± 4.23% |
| COC(=O)/C=C/C(C)=C\C=C\C(C)=C\C=C\C=C(C)\C=C\C=C(C)\C=C\C(=O)O [drug B, Bixin] | – | – | – | 49% and 48.8% | – | – | – | 77.6 ± 0.21% | 60% | 46% | 55.5 ± 8.03% |
| CC(C)=CCCC1(C)C=Cc2c(O)c3c(c(CC=C(C)C)c2O1)OC12C(=CC4CC1C(C)(C)OC2(C/C=C(/C)C(=O)O)C4O)C3=O (centres unmarked) [drug D, dihydrogambogic acid] | 85.1 ± 0.68% | 61% | 32% | 54% | 80.4 ± 0.44% | – | – | – | – | – | – |
| CC(C)=CCC[C@]1(C)C=Cc2c(O)c3c(c(CC=C(C)C)c2O1)O[C@]12C(=C[C@@H]4C[C@H]1C(C)(C)O[C@@]2(C/C=C(/C)C(=O)O)C4=O)C3=O [drug G, Gambogic acid] | 91.6 ± 0.09% | 46% | 89% | 64% and 64.2% | 80.5 ± 2.45% | blocked absorbance | 55% | – | – | – | – |
